# Source: patent EP2593528B1, “LIQUID-C[…] WITH STABILIZER” (Merck Patent GmbH, priority 2010, dated 2012)
# Test: Liquid-crystalline properties of single compounds, determined at 10% in nematic host mixture ZLI-4792
# Assay type: physicochemical
# Conditions: 10% in host mixture ZLI-4792
# Procedure: Außerdem werden folgende Abkürzungen und Symbole verwendet: Vo Schwellenspannung, kapazitiv [V] bei 20°C, V10 optische Schwelle für 10 % relativen Kontrast [V] bei 20°C, ne außerordentlicher Brechungsindex bei 20°C und 589 nm, no ordentlicher Brechungsindex bei 20°C und 589 nm, Δn optische Anisotropie bei 20°C und 589 nm, ε⊥ dielektrische Suszeptibilität senkrecht zum Direktor bei 20°C und 1 kHz, ε∥ dielektrische Suszeptibilität parallel zum Direktor bei 20°C und 1 kHz, Δε dielektrische Anisotropie bei 20°C und 1 kHz, Kp., T(N,I) Klärpunkt [°C], γ1 Rotationsviskosität bei 20°C [mPa·s], K1 elastische Konstante, "splay"-Deformation bei 20°C [pN], K2 elastische Konstante, "twist"-Deformation bei 20°C [pN], K3 elastische Konstante, "bend"-Deformation bei 20°C [pN], LTS "low temperature stability" (Phase), bestimmt in Testzellen, ton Einschaltzeit [Transmissionsänderung von 10 % auf 90 %) bei 20 °C und definierter Operationsspannung, toff Ausschaltzeit [Transmissionsänderung von 90 % auf 10 %) bei 20 °C, RT Reaktionszeit (ton + toff) HR20 "voltage holding ratio" bei 20°C [%] und HR100 "voltage holding ratio" bei 100°C [%].
# Alle physikalischen Eigenschaften werden und wurden nach "Merck Liquid Crystals, Physical Properties of Liquid Crystals", Status Nov. 1997, Merck KGaA, Darmstadt, Deutschland bestimmt und gelten für eine Temperatur von 20°C und An wird bei 589 nm und Δε bei 1 kHz bestimmt, sofern nicht jeweils explizit anders angegeben.
# Die flüssigkristallinen Eigenschaften der Einzelverbindungen werden, soweit nicht anders angegeben, in der nematischen Wirtsmischung ZLI-4792 (kommerziell erhältlich von Merck KGaA, Darmstadt) bei einer Konzentration von 10% bestimmt.
smiles,measurement,setting,value
"CCCc1ccc(-c2cc(F)c(-c3ccc(C)s3)c(F)c2)cc1 [PUS-3-1, 2-(3,5-Difluor-4'-propyl-biphenyl-4-yl)-5-methyl-thiophen]",Δε,dielectric anisotropy at 20°C and 1 kHz,"+3,1"
same,Δn,optical anisotropy at 20°C and 589 nm,"0,3055"
same,γ1,rotational viscosity at 20°C,102 mPa·s
